Article PMC7041945, “Misfolded proteins bind and activate death receptor 5 to trigger apoptosis during unresolved endoplasmic reticulum stress” (eLife, 2020)

Columns and labels:
[1] = test system: caspase 8 in HCT116 lysates; experiment: Caspase 8 activity (caspase glo 8) of cell lysates / IP inputs; format: cell-based, Homo sapiens; details: for average fold change relative to empty: HCT116, rep 1, average of 4 dilutions; for norm RLUs: normalized by lysate quant
Method: Cells harvested from a 6-well plate were resuspended in 100 μl of lysis buffer (30 mM HEPES pH 7.2, 150 mM NaCl, 1% Triton X-100) and lysed via needle shearing (25G, 10 passes) followed by a 30 min incubation on ice. Supernatant was collected after centrifuging at 1000xg for 5 min. For the caspase activity assay, 10 μl of supernatant diluted with lysis buffer (1:25, 1:50, 1:100 to stay within linear range of luminescence measurements) was incubated with 10 μl of the luminogenic caspase glo 8 substrate (Promega #PRG8200) in a 384-white walled plate (Corning 3574) for 45 min at RT before measuring luminescence on a Spectramax-M5 plate reader.

DR5 = experiment: GFP immunoprecipitation: DR5 (FADD, caspase 8) recovered with GFP-tagged protein, Western blot; format: cell-based, Homo sapiens; details: for fraction of DR5 IP'ed: GFP IP
Method: 15 cm dishes were seeded with 4 million HCT116 cells and allowed to recover for 18 hr prior to transfection. Samples were then transfected for 24 hr with the GFP-tagged ER trafficked protein, cytosolic GFP, or empty vector. To harvest apoptotic and living cells for each sample, all media and washes were collected. Cells were scraped in 2 ml of cold PBS and combined with the media and washes. Samples were centrifuged to pellet cells, washed with 1 ml cold PBS, and flash frozen in liquid N2 prior to lysis.
The cell pellets were resuspended in 750 μl of 30 mM HEPES pH 7.2, 150 mM NaCl, 1% Triton X-100 with 1x Roche protease inhibitor cocktail (if used subsequently for caspase glo 8 assay) or with 5x Roche protease inhibitor cocktail (if used for immunoblotting). The cells were lysed by mechanical shearing through a 25G needle for 13–15 plunges followed by incubation on ice for 30 min. The lysate was centrifuged at 2000xg for 5 min to remove debris and then incubated with 30 μl of GFP-Trap magnetic agarose beads (Chromotek gtma-20) for 4 hr at 4°C. The beads were then washed with 750 μl of lysis buffer for 10 min at 4°C for three rounds.
For Western blots, samples were eluted by adding 35 μl of non-reducing SDS gel loading buffer (50 mM Tris-HCl (pH 6.8), 2% SDS, 0.1% bromophenol blue, 10% glycerol) and incubated for 10 min at 70°C. The beads were then magnetically removed from the eluted sample before adding DTT to a final concentration of 25 mM. The entire sample was loaded onto the gel and immunoblotted for DR5, caspase 8, and GFP, in that order.

GFP (340+341) = experiment: qPCR of GFP transcript (expression of GFP-tagged construct); format: cell-based; details: Rep 2; for avg. fold induction GFP (340+341) / fold induction GFP (340+341): vs 24 hr cytoGFP (empty traffo)

Q: With “RHO-GFP: GFP-tagged rhodopsin expressed from plasmid” as the substance, how does the “average fold change relative to empty” value ([1]; siDR5) read?
A: 1.375 fold change

Q: And the “average fold change relative to empty” value ([1]; siNT)?
A: 3.026 fold change

Q: What about the “fold change in caspase 8 activity relative to GFP” value ([1]; input lysates GFP vs INS vs RHO, Rep1) of the same substance?
A: 3.178 fold

Q: And the “fold change in caspase 8 activity relative to GFP” value ([1]; input lysates GFP vs INS vs RHO, Rep2)?
A: 3.026 fold

Q: What about the “avg fold change in caspase 8 activity relative to GFP” value ([1]; input lysates GFP vs INS vs RHO, average of Rep1 and Rep2) of the same substance?
A: 3.102 fold

Q: What about the “Mean ± SEM (lysate inputs)” value ([1]; lysate inputs, relative to GFP, n=2) of the same substance?
A: 3.102 ± 0.07579, n=2

Q: What about the “average fold change relative to GFP” value ([1]; rep 2, average of 3 dilutions) of the same substance?
A: 3.178 fold change

Q: What about the “norm RLUs” value ([1]; rep 2, dilution 0.025) of the same substance?
A: 2013.77 RLUs

Q: And the “norm RLUs” value ([1]; rep 2, dilution 0.05)?
A: 4641.15 RLUs

Q: What about the “norm RLUs” value ([1]; rep 2, dilution 0.1) of the same substance?
A: 10576.5 RLUs

Q: And the “95% confidence interval of difference (lysate inputs)” value ([1]; vs. GFP)?
A: 1.776 to 2.428

Q: What about the “Difference between means (lysate inputs)” value ([1]; vs. GFP) of the same substance?
A: 2.102 ± 0.07579

Q: What about the “fraction of DR5 IP'ed” value (DR5; sheet 2018-04-13 rep 2) of the same substance?
A: 0.05356

Q: And the “fraction of DR5 IP'ed” value (DR5; sheet 2018-09-20 rep 1)?
A: 0.05459

Q: What about the “fraction IP'ed” value (DR5; Rep 1 (second series)) of the same substance?
A: 0.05356

Q: And the “fraction IP'ed” value (DR5; Rep 2 (second series))?
A: 0.05459

Q: What about the “% IP'ed” value (DR5; average of all replicates) of the same substance?
A: 5.408%

Q: What about the “fraction IP'ed, average” value (DR5; average of all replicates) of the same substance?
A: 0.05408

Q: And the “Mean ± SEM (fraction IP'ed)” value (DR5; unpaired t test sheet, GFP n=5, MPZ n=3, INS n=2, RHO n=2)?
A: 0.05408 ± 0.0005162, n=2

Q: What about the “95% confidence interval (difference between means)” value (DR5; vs. GFP, fraction IP'ed) of the same substance?
A: 0.01226 to 0.07547

Q: And the Difference between means (DR5; vs. GFP, fraction IP'ed, ± SEM)?
A: 0.04386 ± 0.01229

Q: What about the “2^-(deltaCq) GFP (340+341)” value (GFP (340+341); 3 hr, replicate 1) of the same substance?
A: 0.5385

Q: And the “Cq GFP (340+341)” value (GFP (340+341); 3 hr, replicate 1)?
A: 20.6309

Q: What about the “Cq(sample) - avg Cq(GAPDH), GFP (340+341)” value (“Cq(sample) - avg Cq(GAPDH)” below) (GFP (340+341); 3 hr, replicate 1) of the same substance?
A: 0.893

Q: What about the “2^-(deltaCq) GFP (340+341)” value (GFP (340+341); 3 hr, replicate 2) of the same substance?
A: 0.6201

Q: What about the “Cq GFP (340+341)” value (GFP (340+341); 3 hr, replicate 2) of the same substance?
A: 20.4274

Q: What about the “Cq(sample) - avg Cq(GAPDH)” value (GFP (340+341); 3 hr, replicate 2) of the same substance?
A: 0.6895

Q: What about the “2^-(deltaCq) GFP (340+341)” value (GFP (340+341); 3 hr, replicate 3) of the same substance?
A: 0.5059

Q: And the “Cq GFP (340+341)” value (GFP (340+341); 3 hr, replicate 3)?
A: 20.721

Q: And the “Cq(sample) - avg Cq(GAPDH)” value (GFP (340+341); 3 hr, replicate 3)?
A: 0.9831

Q: What about the “avg. fold induction GFP (340+341)” value (GFP (340+341); 3 hr, mean of 3 replicates) of the same substance?
A: 0.02018

Q: What about the “fold induction GFP (340+341)” value (GFP (340+341); 3 hr, replicate 1) of the same substance?
A: 0.01959

Q: And the “fold induction GFP (340+341)” value (GFP (340+341); 3 hr, replicate 2)?
A: 0.02256

Q: And the “fold induction GFP (340+341)” value (GFP (340+341); 3 hr, replicate 3)?
A: 0.0184

Q: And the “2^-(deltaCq) GFP (340+341)” value (GFP (340+341); 7 hr, replicate 1)?
A: 2.306

Q: And the “Cq GFP (340+341)” value (GFP (340+341); 7 hr, replicate 1)?
A: 18.4525

Q: What about the “Cq(sample) - avg Cq(GAPDH)” value (GFP (340+341); 7 hr, replicate 1) of the same substance?
A: -1.205

Q: What about the “2^-(deltaCq) GFP (340+341)” value (GFP (340+341); 7 hr, replicate 2) of the same substance?
A: 2.483

Q: And the “Cq GFP (340+341)” value (GFP (340+341); 7 hr, replicate 2)?
A: 18.3457

Q: What about the “Cq(sample) - avg Cq(GAPDH)” value (GFP (340+341); 7 hr, replicate 2) of the same substance?
A: -1.312

Q: What about the “2^-(deltaCq) GFP (340+341)” value (GFP (340+341); 7 hr, replicate 3) of the same substance?
A: 2.811

Q: What about the “Cq GFP (340+341)” value (GFP (340+341); 7 hr, replicate 3) of the same substance?
A: 18.1671

Q: And the “Cq(sample) - avg Cq(GAPDH)” value (GFP (340+341); 7 hr, replicate 3)?
A: -1.4909

Q: What about the “avg. fold induction GFP (340+341)” value (GFP (340+341); 7 hr, mean of 3 replicates) of the same substance?
A: 0.09215

Q: What about the “fold induction GFP (340+341)” value (GFP (340+341); 7 hr, replicate 1) of the same substance?
A: 0.08389

Q: And the “fold induction GFP (340+341)” value (GFP (340+341); 7 hr, replicate 2)?
A: 0.09033

Q: What about the “fold induction GFP (340+341)” value (GFP (340+341); 7 hr, replicate 3) of the same substance?
A: 0.1022

Q: What about the “avg. 2^-(deltaCq) GFP (340+341)” value (GFP (340+341); 24 hr, mean of 3 replicates) of the same substance?
A: 71.8905

Q: And the “2^-(deltaCq) GFP (340+341)” value (GFP (340+341); 24 hr, replicate 1)?
A: 62.5314

Q: What about the “Cq GFP (340+341)” value (GFP (340+341); 24 hr, replicate 1) of the same substance?
A: 13.0515

Q: And the “Cq(sample) - avg Cq(GAPDH)” value (GFP (340+341); 24 hr, replicate 1)?
A: -5.967

Q: And the “2^-(deltaCq) GFP (340+341)” value (GFP (340+341); 24 hr, replicate 2)?
A: 61.8163

Q: And the “Cq GFP (340+341)” value (GFP (340+341); 24 hr, replicate 2)?
A: 13.0681

Q: What about the “Cq(sample) - avg Cq(GAPDH)” value (GFP (340+341); 24 hr, replicate 2) of the same substance?
A: -5.95

Q: What about the “2^-(deltaCq) GFP (340+341)” value (GFP (340+341); 24 hr, replicate 3) of the same substance?
A: 91.3236

Q: And the “Cq GFP (340+341)” value (GFP (340+341); 24 hr, replicate 3)?
A: 12.5051

Q: And the “Cq(sample) - avg Cq(GAPDH)” value (GFP (340+341); 24 hr, replicate 3)?
A: -6.513

Q: What about the “avg. fold induction GFP (340+341)” value (GFP (340+341); 24 hr, mean of 3 replicates) of the same substance?
A: 2.615

Q: What about the “fold induction GFP (340+341)” value (GFP (340+341); 24 hr, replicate 1) of the same substance?
A: 2.275

Q: What about the “fold induction GFP (340+341)” value (GFP (340+341); 24 hr, replicate 2) of the same substance?
A: 2.2486

Q: What about the “fold induction GFP (340+341)” value (GFP (340+341); 24 hr, replicate 3) of the same substance?
A: 3.322
